Tested on: human keratinocytes
Assay: Cytotoxicity of cadmium chloride toward human keratinocytes in culture (intracellular glutathione, monochlorobimane probe), in the presence or absence of hyacinth extract
Type: cell-based
Conditions: 24 hours; for toxicity toward human keratinocytes: human keratinocytes in vitro
Description: Heavy metals such as cadmium, nickel, lead, mercury, etc. can lead to cytotoxicity on the cells of various organs including the skin. The cytotoxic effect of cadmium on human keratinocytes in culture was evaluated by means of a technique using a fluorescent probe to measure the level of intracellular glutathione (J. C. Fernandez Checa et al. 1990, R. Kannan et al. 1993).
The study was performed on a monolayer culture of human keratinocytes obtained from plastic surgeries. The cells are inoculated on D-3 into 96-well culture dishes at a rate of 25 000 cells/cm^2 in 100 μl of culture medium (calf serum-free defined medium, NR2, Biofluids). The incubations are performed in an incubator at 37° C. under a humid atmosphere enriched with 5% CO2.
The cells are treated for 24 hours with increasing concentrations (0, 10, 25, 50, 75, 100, 150 and 200 μM) of cadmium chloride (CdCl2) alone, so as to determine its cytotoxicity. In parallel, a treatment is performed under the same conditions, but in the presence of hyacinth extract (0.125%). The incubations are performed in an incubator at 37° C., [lacuna]% CO2 under a humid atmosphere.
At the end of the contact period, labeling of the intracellular glutathione is performed using a specific fluorescent probe: monochlorobimane (MCB).
Briefly, after treatment, rinse the cells with buffer (PBS) so as to remove the treatment solutions.
Add 100 μl per well of a 1 mM MCB solution over one hour at room temperature and protected from light.
Eliminate the MCB, and add 200 μl/well of PBS buffer.
Read on the spectrofluorimeter (excitation: 380 nm; emission: 485 nm).
The fluorescence obtained is proportional to the amount of glutathione conjugated to the MCB.
Calculate the concentration of CdCl2 that results in a 50% drop in the level of glutathione (=IC.50)

[Cl][Cd][Cl] [cadmium chloride]
IC50 (CdCl2 alone, human keratinocyte monolayer, concentration giving 50% drop in glutathione level/cell viability, 3 independent experiments, read-out: IC.50 of cadmium chloride without protecting agent, Mean ± SEM): 43.7 µM | toxicity toward human keratinocytes (listed as Cadmium chloride): considerable toxicity | toxicity toward human keratinocytes (listed as cadmium): strong toxicity

From US20040047831A1, “Use of a cell extract of at least a plant of the family pontederiaceae as anti-pollution agent” (priority 2000, published 2004)
